# Measured values published in patent US11124536B2, “Uridine nucleoside derivatives, compositions and methods of use” (Tufts University, priority 2013, dated 2021).
# Entries after “also recorded” stand apart in the source; their conditions may differ.
# Legend:
# PSAPP mice [1] = test: Postmortem immunohistochemistry of amyloid beta plaque load in cortex and hippocampus; type: in vivo
# Protocol: Mice were perfused transcardially with 4% paraformaldehyde and 40 μm Coronal sections were collected. Sections were sequentially incubated in 0.3% H2O2 for 10 minutes, blocking solution for 2 hrs, blocking solution containing the primary antibody (rabbit anti-beta1-42; rabbit anti-beta1-40, from Chemicon International and rat anti-CD45) for 48 hours at 4° C., and blocking solution containing biotinylated antibody or fluorescently-labeled antibody for 2 hours at room temperature. Sections were visualized in a bright field microscope or a confocal microscope, and the optical density was obtained using MetaMorph software.
# To generate these graphs showing plaque load, mice were euthanized, brain sections cut and antibodies directed against Aβ 42 were used to disclose Aβ plaques. Images were acquired digitally and an algorithm was applied to threshold the image so that plaques were isolated from the background. The algorithm then calculated the percent area of the field of view occupied by the plaques.
# Brain samples were collected for Abeta analysis with immunostaining. Brains samples were collected after transcardial perfusion with phosphate buffer and 4% paraformaldehyde. Floating brain sections (40 micron) were collected using a microtome. Immunostaining for Aβ40 and Aβ42 were performed according to previously established protocol. Images with DAB staining were collected with brightfield microscopy and analyzed with ImageJ Macro. All data analysis and statistics were performed in GraphPad Prism 6.0.
# PSAPP mice [2] = test: Contextual fear conditioning test (freezing %); type: in vivo
# Protocol: On day one, animals were trained in a fear conditioning apparatus for a total of 7 minutes with a two-pairing paradigm of cue and mild foot shock (a 30-s acoustic-conditioned stimulus, 80 dB; a 2-s shock stimulus, 0.5 mA). To evaluate contextual fear learning, the animals were returned to the training context 24 hours post-training, and freezing behavior was scored for 5 minutes. Freezing behavior was monitored by MotorMonitor (Hamilton Kinder) and scored every 5 seconds.
# This represents a decrease in the cognitive impairment observed in the untreated mice.
# PSAPP mice [3] = test: Multiplex analysis of circulating plasma cytokine levels; type: in vivo
# Protocol: Inflammatory cytokines were assessed in mouse plasma of both wild type and PS1/APP mice (Alzheimer's mouse model) and the impact of intraperitoneal delivery of the diphosphate derivative of compound 5 on circulating cytokines was assessed. […] 24 hours following the final injection, plasma was collected. Wildtype, age matched littermates and PSAPP mice (>6 months of age) were treated either with vehicle (phosphate buffered saline) or vehicle containing compound.
# As part of the study described in Example 16, the levels of numerous cytokines in plasma of mice treated with vehicle or compound 5 were also evaluated. As described in Example 16, treatment was initiated when the mice were approximately 3 months old. PSAPP mice were treated for 100 days with daily injections of 10 μg/kg of compound 5 or vehicle. Following treatment and the fear conditioning task experiment, plasma was taken for multiplex cytokine analysis of circulating cytokine levels in vehicle-treated versus compound-treated PSAPP mice. Cytokine levels are assayed using a multi-plex system where beads are labelled with capture antibody specific for each analyte tested. Each bead set is coupled to a specific capture antibody and is distinguishable from beads coupled to a different capture antibody. Thus, the levels of each analyte can be evaluated and distinguished. […] In FIGS. 17-20, compound 5 is indicated along the x-axis as “compound”.
# Oral bioavailability = details: in vivo
# [4] = Half-life in human whole blood; type: in vitro ADME
# human THP-1 cells = test: Cytokine release from THP-1 cells into culture medium (multiplex cytokine analysis); type: cell-based; details: 24 hours
# Protocol: THP-1 cells, a human cell line derived from monocytes, were treated in vitro with vehicle, the P2Y6 receptor antagonist MRS 2578, or compound 5, singly or in combination. THP-1 cells were seeded in 24 well plates at a density of 4×10^5 cells/well in culture medium for 24 hours. Thereafter, vehicle, compound 5, or MRS 2578 (singly or in combination) were added to the cultures for 24 hours. Subsequently the culture medium was aspirated and subjected to multiplex cytokine analysis. Data are presented as means+/−sem. MRS 2578 has a molecular weight of about 472 and is also described using CAS number 711019-86-2.
# [5] = Cmax at the effective dose; details: mouse, in vivo; dose 10 ug/kg
structure (smiles),measurement,setting,value
O=C1C=CC([C@@H]2O[C@H](CO)C(O)C2O)C(=O)N1Cc1noc2ccccc12 (stereo partly shown) [compound 5],size distribution of remaining plaques,"PSAPP mice [1]; 10 μg/kg i.p. once per day for 7 days, PS1/APP mice 26 weeks",significantly reduced
same,Aβ40 plaque burden,"PSAPP mice [1]; 10 μg/kg i.p. once per day for 7 days, PS1/APP mice 26 weeks, cortex, FIG. 13A",significantly reduced
same,Aβ42 plaque burden,"PSAPP mice [1]; 10 μg/kg i.p. once per day for 7 days, PS1/APP mice 26 weeks, cortex, FIG. 13B",significantly reduced
same,plaque burden vs vehicle,"PSAPP mice [1]; Example 16: 10 μg/kg i.p. daily 100 days from approx. 3 months old, FIG. 16",decrease; also recorded: reduced
same,amyloid beta accumulation (plaque load) in the cortex,"PSAPP mice [1]; Example 18: 10 μg/kg i.p. daily 100 days, FIG. 22A, p<0.01",decreased
same,amyloid beta accumulation (plaque load) in the hippocampus,"PSAPP mice [1]; Example 18: 10 μg/kg i.p. daily 100 days, FIG. 22B, p<0.02",decreased
same,amyloid beta accumulation in the hippocampus (using Aβ42),"PSAPP mice [1]; Example 19: 10 μg/kg i.p. daily 7 days from approx. 6 months old, FIG. 24A lower panel",decreased
same,amyloid beta accumulation in the cortex (using Aβ40),"PSAPP mice [1]; Example 19: 10 μg/kg i.p. daily 7 days from approx. 6 months old, FIG. 24A upper panel",decreased
same,plaque size,"PSAPP mice [1]; Example 19: 10 μg/kg i.p. daily 7 days, FIG. 24B",decrease
same,freezing time (contextual fear memory) vs vehicle,"PSAPP mice [2]; Example 16: 10 μg/kg i.p. daily 100 days from approx. 3 months old (pre-symptomatic), FIG. 15",statistically significant increase
same,freezing time (contextual fear memory) vs vehicle,"PSAPP mice [2]; Example 18: 10 μg/kg i.p. daily 100 days from approx. 3 months old, FIG. 22C, p<0.02",statistically significant increase
same,"plasma levels of IL-4, IL-10, and IL-12 (IL-12(p70))","PSAPP mice [3]; Example 17: 10 μg/kg daily 100 days from approx. 3 months old, FIG. 17",statistically significant reduction
same,plasma level of p40 subunit alone (IL-12(p40)),"PSAPP mice [3]; Example 17: 10 μg/kg daily 100 days, FIG. 17",does not reflect a change
same,"average plasma levels of IFN-r, IL-1β, IL-2, IL-3, IL-5, IL-6, IL-7, IL-9, IL-13, IL-17, LIF, MIP-1α, and MIP-1β","PSAPP mice [3]; Example 17: 10 μg/kg daily 100 days, FIGS. 17-20",reduced
same,"levels of M-CSF, MIP-2, Eotaxin, GM-CSF, G-CSF, LIX, MCP-1, IL-1α and IP-10","PSAPP mice [3]; Example 17: 10 μg/kg daily 100 days, FIGS. 18-20",no or substantially no change
same,"plasma levels of IL-12 (IL-12(p70)), IL-13, IL-17, IL-10, IL-4, MIP-1a, MIP-1b, and IL-2","PSAPP mice [3]; Example 18: 10 μg/kg i.p. daily 100 days from approx. 3 months old, FIG. 21",statistically significant reduction
same,"plasma levels of IL-12 (IL-12(p70)), IL-13, IL-17, IL-10, MIP-1a, MIP-1b, and TNFα","PSAPP mice [3]; Example 19: 10 μg/kg i.p. daily 7 days from approx. 6 months old (symptomatic), FIG. 23",statistically significant reduction
same,bioavailability,Oral bioavailability,72.2%
same,half-life,[4],16.4 h
same,release of cytokines from THP-1 cells,human THP-1 cells; 10 nM,reduced
same,release of IL-7 from human THP-1 cells,"human THP-1 cells; compound 5 10 nM alone, FIG. 26",decreased
same,Cmax,[5],0.013 µM
